The values below come from ChEMBL document CHEMBL2375326, “Novel IKKβ inhibitors discovery based on the co-crystal structure by using binding-conformation-based and ligand-based method” (Eur J Med Chem, 2013).

For the first assay, the target named is T1, Inhibitor of nuclear factor kappa-B kinase subunit beta (Homo sapiens) (UniProt O14920).
T1 sequence (whole entry): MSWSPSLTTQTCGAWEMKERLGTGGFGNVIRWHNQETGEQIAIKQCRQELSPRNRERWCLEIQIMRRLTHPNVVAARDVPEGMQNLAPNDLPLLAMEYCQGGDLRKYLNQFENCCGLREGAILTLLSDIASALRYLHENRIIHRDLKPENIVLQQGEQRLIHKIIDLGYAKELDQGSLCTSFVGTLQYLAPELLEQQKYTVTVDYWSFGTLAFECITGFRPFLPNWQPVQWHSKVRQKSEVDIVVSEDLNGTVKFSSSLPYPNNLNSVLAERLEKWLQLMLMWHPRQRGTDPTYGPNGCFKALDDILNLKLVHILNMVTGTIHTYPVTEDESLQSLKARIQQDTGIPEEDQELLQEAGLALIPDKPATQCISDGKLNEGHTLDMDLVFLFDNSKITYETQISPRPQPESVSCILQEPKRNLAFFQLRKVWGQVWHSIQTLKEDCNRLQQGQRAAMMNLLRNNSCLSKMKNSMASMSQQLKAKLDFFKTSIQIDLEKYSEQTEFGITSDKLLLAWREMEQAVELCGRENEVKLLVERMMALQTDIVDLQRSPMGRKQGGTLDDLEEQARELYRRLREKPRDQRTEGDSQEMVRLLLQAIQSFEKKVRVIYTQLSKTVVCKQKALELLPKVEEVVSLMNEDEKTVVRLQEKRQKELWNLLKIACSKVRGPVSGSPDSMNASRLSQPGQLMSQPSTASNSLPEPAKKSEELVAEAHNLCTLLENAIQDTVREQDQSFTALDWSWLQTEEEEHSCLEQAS
In words: Inhibition of human IKKbeta using GST-IkappaBalpha as substrate at 10 uM.
Conditions: not given
As a reminder, the inhibition is how much of the control response was suppressed. A higher inhibition goes with strong suppression. Consider `Cc1c(-c2ccc3c(c2)COC3)sc(N)c1C#N`, for which the inhibition is 92.4%.
For `NC(=O)C[C@H](Nc1ncc2c(n1)-c1ccccc1OC2)C(=O)O`, the inhibition was 44.4%.
For the molecule `O=C(c1ccco1)c1coc2c1cc(O)c1ccccc12`, the inhibition came to 29.6%.
Same read-out and setting: next, `CC(C)NC[C@@H](O)COc1cccc2[nH]c3ccccc3c12`: 36.7%; `Cc1ccc(-c2cc3c(c(N)c2C#N)c(=O)oc2ccccc23)o1`: 23.4%; `CCOC(=O)c1c(N)oc(=O)c2c1-c1ccccc1C2=O`: 43.8%.
In turn, `CCCCc1ccc(-n2cnc3c(=O)[nH]c(N)nc32)cc1` came in with an inhibition of 41.5%.
For `Cc1sc(N)c2c(=O)oc3c4ccccc4ccc3c12`, the inhibition was determined as 64.1%.
On to `Nc1nc(=O)c2ncn(-c3cccc(-c4ccccc4)c3)c2[nH]1`, for which the inhibition came out at 47.1%.
`CC[C@H](OC(=O)Nc1ccc(S(=O)(=O)N2CCCCC2)cc1)c1ccco1` yielded an inhibition of 44.3%.
For `N#Cc1c(C2CCNCC2)cc(-c2c(O)cccc2OCC2CC2)nc1N`, the inhibition was found to be 100%.
In turn, `OC[C@@H](O)[C@@H](O)[C@H](O)c1nn(-c2ccccc2)c2nc3ccc(Cl)cc3nc12` returned an inhibition of 44.8%.
`COC(=O)c1ccc(NC(=O)COc2ccc(S(=O)(=O)NC(C)(C)C)cc2)cc1` yielded an inhibition of 23.8%.

The target of a further assay is T2, Inhibitor of nuclear factor kappa-B kinase subunit beta (Homo sapiens, UniProt O14920).
T2 sequence (O14920 whole entry): T1 sequence (whole entry)
Particulars: read-out: IC50.
On to `Cc1c(-c2ccc3c(c2)COC3)sc(N)c1C#N`, for which the IC50 turned out to be 2440 nM.
Regarding `Cc1sc(N)c2c(=O)oc3c4ccccc4ccc3c12`, the IC50 amounted to 9690 nM.

The assay is the same for the next values; noted with them: read-out: pIC50 (converted).
Consider `c1ccc(Oc2ccc(-c3ccnc(Nc4ccc5ncsc5c4)n3)cc2)cc1`, for which the IC50 was 6030 nM.
For the molecule `CCNC(=O)c1ccc(-c2nc3c(nc(NC)c4ncn(C)c43)s2)cc1`, the IC50 is 15.1 nM.
Regarding `N#Cc1c(C2CCCNC2)cc(-c2c(O)cccc2OCc2ccccc2)nc1N` (configuration not stated), the IC50 is 9.12 nM.
With `C#Cc1c(C2CCNCC2)cc(-c2c(O)cccc2OCC2CC2)nc1N`, the IC50 was 8.51 nM.
Still for that read-out and setting: with `NC(=O)Nc1sc(C#CC2CC2)cc1C(N)=O` the figure was 263 nM; with `CNc1nc2cc(-c3cccc(CCC(=O)O)c3)sc2n2c(C)cnc12`, 9.12 nM; with `CNc1nc2[nH]c(-c3cccc(C#N)c3)cc2c2c1ncn2C`, 7.08 nM.
For the molecule `NC(=O)Nc1cc(-c2ccccc2)sc1C(N)=O`, the IC50 is 25.1 nM.
With `NC(=O)Nc1ncc(-c2ccccc2)nc1C(N)=O`, the IC50 is 10000 nM.
Turning to `NC(=O)c1sc(-c2ccccc2)cc1N`, the IC50 was 3240 nM.
`CNC(=O)c1sc(-c2ccccc2)cc1NC(N)=O`: the IC50 is 100000 nM.
Turning to `CNc1nc2sc(-c3ccc(F)cc3)nc2c2c1ncn2C`, the IC50 was 26.3 nM.
For the molecule `NC(=O)Nc1sc(C#Cc2cccc(NC(=O)c3ccccn3)c2)cc1C(N)=O`, the IC50 was 100000 nM.
As for `CNc1nc2sc(-c3ccc(N4CC=CCC4)cc3)nc2c2c1ncn2C`, the IC50 is 33.1 nM.
Still for that read-out and setting: next, `NC(=O)Nc1cc(-c2cccc(Cl)c2)sc1C(N)=O`: 39.8 nM.
On the same count and under the same terms, with `COc1c(C(N)=O)cc(-c2ccccc2)cc1-c1ccncc1` the figure was 15800 nM; with `Cc1cnc2c(NCCN)nc3cc(-c4ccc[nH]4)sc3n12`, 2.51 nM; with `CNc1nc2[nH]c(-c3cccc(CNC(=O)CCC(N)=O)c3)cc2c2c1ncn2C`, 21.9 nM.
`CNC(=O)c1cc(-c2ccc(F)cc2)cc(-c2ccc(S(C)(=O)=O)cc2)c1N`: the IC50 was 15800 nM.
For `CN(CCN)C(=O)c1ccc(Nc2nccc(-c3cc4ccccc4s3)n2)cc1`, the IC50 was more than 100000 nM.
Still for that read-out and setting: with `CNc1nc2cc(-c3ccccc3)sc2n2c(C)cnc12` the figure was 21.9 nM; with `CCS(=O)(=O)N1CCC(COc2cc3cnccc3cc2-c2ccccc2)CC1`, 20000 nM; with `O=S(=O)(c1ccc(-c2ccnc(Nc3cc(F)cc(F)c3)n2)cc1)N1CCNCC1`, 117 nM.
Consider `Cc1cnc2c(NCCN3CCNCC3)nc3cc(-c4ccccc4)sc3n12`, for which the IC50 was 39.8 nM.
As to `CN(c1ccc(-c2ccnc3[nH]ccc23)cc1)S(C)(=O)=O`, the IC50 was 316 nM.
As for `CC(=O)c1cc2cc(Nc3nccc(-c4ccc(S(=O)(=O)N5CCNCC5)cc4)n3)ccc2o1`, the IC50 is 25.7 nM.
On to `CNc1nc2[nH]c(-c3cccc(CNC(=O)CCOC)c3)cc2c2c1ncn2C`, for which the IC50 was 12 nM.
As for `CNc1nc2[nH]c(-c3cccc(OC)c3)cc2c2c1ncn2C`, the IC50 was 7.94 nM.
Turning to `CN(C)c1ccc(-c2cc(-c3ccccc3O)nc(N)c2C#N)cc1`, the IC50 was 20000 nM.
The same measure, in the same setting: with `CNCCNS(=O)(=O)c1ccc(-c2ccnc3[nH]ccc23)cc1` the figure was 32.4 nM; with `CNc1nc2sc(-c3ccc(C(=O)NCc4cccs4)cc3)nc2c2c1ncn2C`, 15.1 nM; with `CNC(=O)c1ccc(-c2nc3c(nc(NC)c4ncn(C)c43)s2)cc1`, 15.1 nM.
Take `O=C1C=CC(c2ccc(-c3ccnc(Nc4ccc5ncsc5c4)n3)cc2)C=C1`: the IC50 was 2510 nM.
With `N#Cc1c(-c2ccc([N+](=O)[O-])cc2)cc(-c2ccccc2O)nc1N`, the IC50 was 20000 nM.
Take `CNc1nc2sc(-c3ccc(SC)cc3)nc2c2c1ncn2C`: the IC50 was 28.2 nM.
Take `NC(=O)c1sc(-c2ccccc2)cc1NS(=O)(=O)c1ccc(F)cc1`: the IC50 was 1580 nM.
Same read-out and setting: next, `CNc1nc2cc(-c3nccs3)sc2c2c1ncn2C`: 229 nM; `CNc1nc2[nH]c(-c3ccc(F)cc3)cc2c2c1ncn2C`: 42.7 nM.
Take `CNC(=O)c1cc(-c2ccc(F)cc2)cc(-c2ccc(N3CCCCC3)cc2)c1N`: the IC50 was 15800 nM.
In the case of `NC(=O)c1sc(-c2ccccc2)cc1NC(=O)NCc1ccccc1`, the IC50 was 100000 nM.
Take `N#Cc1c(C2CCCNC2)cc(-c2c(O)cccc2OCC2CCCCC2)nc1N` (configuration not stated): the IC50 is 26.3 nM.
Take `Cc1cnc2c(NCCN)nc3cc(-c4ncc[nH]4)sc3n12`: the IC50 is 447 nM.
